Test results taken from patent US9902696B2, “1,4-substituted piperidine derivatives” (Cephalon, Inc., priority 2015, dated 2018).
pIC50: −log10 of the molar value. Counter-ions that a name gives are not always drawn.

biological target: T1, recombinant human baculovirus-expressed GST-tagged FASN (Homo sapiens, UniProt P49327); experiment: FASN enzyme activity assay, fluorescence-based detection of CoA with CPM; assay type: biochemical; details: 5 nM FASN, 150 μM NADPH, 10 μM acetyl-CoA, 25 μM malonyl-CoA, 90 minutes incubation; read-out: IC50 data for Additional Compounds of Formulae I-V(a): Activity
T1 construct: GST
T1 sequence (P49327 whole entry): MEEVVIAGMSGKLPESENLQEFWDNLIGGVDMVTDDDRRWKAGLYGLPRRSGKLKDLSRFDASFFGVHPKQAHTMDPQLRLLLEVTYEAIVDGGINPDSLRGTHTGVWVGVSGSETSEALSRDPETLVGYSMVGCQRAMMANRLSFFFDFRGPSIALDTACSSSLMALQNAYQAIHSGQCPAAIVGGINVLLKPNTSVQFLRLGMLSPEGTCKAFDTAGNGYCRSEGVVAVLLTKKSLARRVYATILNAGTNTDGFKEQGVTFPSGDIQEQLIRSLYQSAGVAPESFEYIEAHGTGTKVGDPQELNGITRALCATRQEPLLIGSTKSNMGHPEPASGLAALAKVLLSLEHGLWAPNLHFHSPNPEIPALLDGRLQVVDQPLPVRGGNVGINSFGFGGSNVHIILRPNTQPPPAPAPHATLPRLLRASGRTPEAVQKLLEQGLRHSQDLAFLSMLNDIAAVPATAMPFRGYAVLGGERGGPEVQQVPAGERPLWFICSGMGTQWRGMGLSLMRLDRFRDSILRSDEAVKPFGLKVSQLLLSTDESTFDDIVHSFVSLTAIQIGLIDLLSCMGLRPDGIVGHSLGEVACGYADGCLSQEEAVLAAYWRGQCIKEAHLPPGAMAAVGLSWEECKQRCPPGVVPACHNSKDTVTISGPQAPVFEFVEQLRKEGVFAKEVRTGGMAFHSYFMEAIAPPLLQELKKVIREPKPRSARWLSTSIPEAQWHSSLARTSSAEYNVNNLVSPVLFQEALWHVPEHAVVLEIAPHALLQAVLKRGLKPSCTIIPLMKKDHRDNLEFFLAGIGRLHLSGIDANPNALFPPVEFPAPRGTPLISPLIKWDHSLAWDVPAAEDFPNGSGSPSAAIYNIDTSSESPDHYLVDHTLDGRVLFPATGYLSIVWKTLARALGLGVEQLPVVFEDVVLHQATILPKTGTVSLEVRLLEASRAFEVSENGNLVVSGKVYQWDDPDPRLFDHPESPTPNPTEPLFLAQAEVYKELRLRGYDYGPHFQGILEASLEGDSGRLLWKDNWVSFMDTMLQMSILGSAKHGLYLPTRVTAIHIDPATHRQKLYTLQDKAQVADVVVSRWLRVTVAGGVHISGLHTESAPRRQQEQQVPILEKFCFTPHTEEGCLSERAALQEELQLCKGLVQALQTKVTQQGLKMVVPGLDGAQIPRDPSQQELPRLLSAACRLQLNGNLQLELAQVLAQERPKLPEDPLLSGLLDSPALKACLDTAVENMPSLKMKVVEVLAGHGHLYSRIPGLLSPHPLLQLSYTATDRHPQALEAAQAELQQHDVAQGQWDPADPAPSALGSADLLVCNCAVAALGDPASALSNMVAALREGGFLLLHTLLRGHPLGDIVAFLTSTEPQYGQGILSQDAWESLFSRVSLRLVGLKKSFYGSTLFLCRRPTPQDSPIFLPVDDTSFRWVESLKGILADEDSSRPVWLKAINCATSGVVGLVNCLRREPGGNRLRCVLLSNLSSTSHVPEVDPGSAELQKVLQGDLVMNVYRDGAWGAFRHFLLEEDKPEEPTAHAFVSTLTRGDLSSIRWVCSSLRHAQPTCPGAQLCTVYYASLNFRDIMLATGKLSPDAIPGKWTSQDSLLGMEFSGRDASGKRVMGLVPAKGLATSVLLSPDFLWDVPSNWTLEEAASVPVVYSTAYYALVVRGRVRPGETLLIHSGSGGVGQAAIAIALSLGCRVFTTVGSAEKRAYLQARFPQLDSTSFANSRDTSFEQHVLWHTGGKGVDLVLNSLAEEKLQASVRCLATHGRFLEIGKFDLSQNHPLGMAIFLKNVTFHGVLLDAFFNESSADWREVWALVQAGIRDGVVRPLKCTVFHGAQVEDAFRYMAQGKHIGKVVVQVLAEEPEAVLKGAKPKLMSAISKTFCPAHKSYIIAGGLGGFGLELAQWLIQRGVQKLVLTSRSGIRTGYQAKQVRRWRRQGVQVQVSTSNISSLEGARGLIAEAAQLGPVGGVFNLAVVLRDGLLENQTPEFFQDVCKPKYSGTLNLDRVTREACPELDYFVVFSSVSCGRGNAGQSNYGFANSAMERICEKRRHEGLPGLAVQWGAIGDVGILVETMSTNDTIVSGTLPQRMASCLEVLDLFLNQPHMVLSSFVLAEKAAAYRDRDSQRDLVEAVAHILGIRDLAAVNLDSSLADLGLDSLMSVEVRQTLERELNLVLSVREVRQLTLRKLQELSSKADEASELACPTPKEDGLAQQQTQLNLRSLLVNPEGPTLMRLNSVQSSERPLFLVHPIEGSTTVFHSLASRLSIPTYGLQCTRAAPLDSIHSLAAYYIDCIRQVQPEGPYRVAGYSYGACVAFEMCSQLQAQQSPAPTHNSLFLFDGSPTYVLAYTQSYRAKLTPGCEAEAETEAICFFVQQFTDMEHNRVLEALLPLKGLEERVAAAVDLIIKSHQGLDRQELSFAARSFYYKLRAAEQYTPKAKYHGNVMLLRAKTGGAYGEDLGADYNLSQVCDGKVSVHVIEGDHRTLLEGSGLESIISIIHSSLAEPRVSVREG
How it was run: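 Human GST-tagged FASN, baculovirus-expressed (5 nM), in 50 mM HEPES pH 7.5 with 150 μM NADPH, 10 μM acetyl-CoA, 25 μM malonyl-CoA, 0.5% DMSO; malonyl-CoA-started, 90 min. Released CoA detected with CPM (50 μM dilution), 30 min, fluorescence ex 390/em 530. IC50 from variable-slope sigmoidal fit of % inhibition versus log concentration.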

| pIC50 | SMILES |
| --- | --- |
| 5.00 to 6.00 | Cc1c(-c2ccc(OC3CCN(C(=O)N(C)C)CC3)cc2)ccc2nccn12 [Example 599, N,N-Dimethyl-4-[4-(5-methylimidazo[1,2-a]pyridin-6-yl)phenoxy]piperidine-1-carboxamide] |
| 5.00 to 6.00 | CCCONC(=O)N1CCC(Oc2ccc(-c3ccc4nccn4c3Cl)cc2)CC1 [Example 576, 4-[4-(5-Chloroimidazo[1,2-a]pyridin-6-yl)phenoxy]-N-propoxy-piperidine-1-carboxamide] |
| 7.00 to 9.00 | CCNC(=O)N1CCC(Oc2ccc(-c3ccn4ccnc4c3)cc2)CC1 [Example 628, N-Ethyl-4-(4-imidazo[1,2-a]pyridin-7-ylphenoxy)piperidine-1-carboxamide, HCl] |
| 5.00 to 6.00 | Cc1c(-c2ccc(OC3CCN(C(=O)OCC(C)C)CC3)cc2)ccc2nccn12 [Example 602, Isobutyl 4-[4-(5-methylimidazo[1,2-a]pyridin-6-yl)phenoxy]piperidine-1-carboxylate] |
| 5.00 to 6.00 | CCONC(=O)N1CCC(Oc2ccc(-c3ccc4nccn4c3Cl)cc2)CC1 [Example 573, 4-[4-(5-Chloroimidazo[1,2-a]pyridin-6-yl)phenoxy]-N-ethoxy-piperidine-1-carboxamide] |
| 5.00 to 6.00 | CCNC(=O)N1CCC(Oc2ccc(-c3ccc4ccc(O)nc4c3C)cc2)CC1 [Example 529, N-Ethyl-4-[4-(2-hydroxy-8-methyl-7-quinolyl)phenoxy]piperidine-1-carboxamide] |

same assay, conditions: 5 nM FASN, 150 μM NADPH, 10 μM acetyl-CoA, 25 μM malonyl-CoA, 90 minutes incubation; read-out: IC50 data for Compounds of Formulae I-V/V(a): Activity

| pIC50 | SMILES |
| --- | --- |
| 5.00 to 6.00 | CCC(=O)N1CCC(Oc2ccc(-c3ccc4cccnc4c3NCCN3CCCC3)cc2)CC1 [Example 335, 1-(4-{4-[8-(2-Pyrrolidin-1-yl-ethylamino)-quinolin-7-yl]-phenoxy}-piperidin-1-yl)-propan-1-one] |
| 6.00 to 7.00 | O=C(C1CC1)N1CCC(Oc2cc(F)c(-c3cnc4ccccc4c3)cc2F)CC1 [Example 217, Cyclopropyl-[4-(2,5-difluoro-4-quinolin-3-yl-phenoxy)-piperidin-1-yl]-methanone] |
| 7.00 to 9.00 | Cc1c(-c2ccc(OC3CCN(C(=O)C4CC4)CC3)c(F)c2)ccc2cccnc12 [Example 227, Cyclopropyl-{4-[2-fluoro-4-(8-methylquinolin-7-yl)-phenoxy]-piperidin-1-yl}-methanone] |
| 6.00 to 7.00 | CCC(=O)N1CCC(Oc2ccc(-c3ccc4cc(C#N)cnc4c3)cc2)CC1 [Example 277, 7-[4-(1-Propionyl-piperidin-4-yloxy)-phenyl]-quinoline-3-carbonitrile] |
| 5.00 to 6.00 | O=C(C1CC(F)(F)C1)N1CCC(Oc2ccc(-c3cnc4ccccc4c3)cc2)CC1 [Example 119, (3,3-Difluorocyclobutyl)-[4-(4-quinolin-3-yl-phenoxy)-piperidin-1-yl]-methanone] |
| 7.00 to 9.00 | CN(C)c1c(-c2ccc(OC3CCN(C(=O)[C@H]4CCCO4)CC3)cc2)ccc2cccnc12 [Example 331, [4-[4-[8-(Dimethylamino)-7-quinolyl]phenoxy]-1-piperidyl]-[(2R)-tetrahydro-furan-2-yl]methanone] |
| 5.00 to 6.00 | CCC(=O)N1CCC(Oc2ccc(-c3ccc4cccnc4c3C(N)=O)cc2)CC1 [Example 337, 7-[4-(1-Propionyl-piperidin-4-yloxy)-phenyl]-quinoline-8-carboxylic acid amide] |
| 5.00 to 6.00 | O=C(c1ncco1)N1CCC(Oc2ccc(-c3cnc4ccccc4c3)cc2)CC1 [Example 123, Oxazol-2-yl-[4-(4-quinolin-3-yl-phenoxy)-piperidin-1-yl]-methanone; HCl] |
| 6.00 to 7.00 | CCC(=O)N1CCC(Oc2ccc(-c3cnc4ccccc4n3)cc2)CC1 [Example 66, 1-[4-(4-Quinoxalin-2-yl-phenoxy)-piperidin-1-yl]-propan-1-one] |
| 7.00 to 9.00 | CCOc1c(-c2ccc(OC3CCN(C(=O)CC)CC3)cc2)ccc2cccnc12 [Example 167, 1-{4-[4-(8-Ethoxyquinolin-7-yl)-phenoxy]-piperidin-1-yl}-propan-1-one, HCl] |
| 7.00 to 9.00 | CNc1c(-c2ccc(OC3CCN(C(=O)[C@H]4CCCO4)CC3)cc2)ccc2cccnc12 [Example 325, {4-[4-(8-Methylaminoquinolin-7-yl)-phenoxy]-piperidin-1-yl}-(R)-tetrahydrofuran-2-yl-methanone] |
| 6.00 to 7.00 | Cc1cc2nccn2cc1-c1ccc(OC2CCN(C(=O)[C@H]3CCCO3)CC2)cc1 [Example 292, {4-[4-(7-Methylimidazo[1,2-a]pyridin-6-yl)-phenoxy]-piperidin-1-yl}-(R)-tetrahydrofuran-2-yl-methanone] |
| 6.00 to 7.00 | CC(C)C(=O)N1CCC(Oc2ccc(-c3cnc4ccccc4c3)cc2)CC1 [Example 113, 2-Methyl-1-[4-(4-quinolin-3-yl-phenoxy)-piperidin-1-yl]-propan-1-one, HCl] |
| 6.00 to 7.00 | O=C(C1CCC1)N1CCC(Oc2ccc(-c3ccc4ccccc4n3)cc2)CC1 [Example 41, Cyclobutyl-[4-(4-quinolin-2-yl-phenoxy)-piperidin-1-yl]-methanone] |
| 7.00 to 9.00 | CCNC(=O)N1CCC(Oc2ccc(-c3ccc4cccnc4c3C)cc2)CC1 [Example 88, N-ethyl-4-[4-(8-methyl-7-quinolyl)phenoxy]piperidine-1-carboxamide] |
| 7.00 to 9.00 | CCC(=O)N1CCC(Oc2ccc(-c3ccc4cccnc4c3OC)cc2)CC1 [Example 273, 1-{4-[4-(8-Methoxyquinolin-7-yl)-phenoxy]-piperidin-1-yl}-propan-1-one, TFA salt] |
| 5.00 to 6.00 | CCC(=O)N1CCC(Oc2ccc(-c3ccc4cccnc4c3N(C)C)cc2)CC1 [Example 332, 1-{4-[4-(8-Dimethylaminoquinolin-7-yl)-phenoxy]-piperidin-1-yl}-propan-1-one] |

| pIC50 | SMILES |
| --- | --- |
| 5.00 to 6.00 | O=C(C1CCOC1)N1CCC(Oc2ccc(-c3cnc4ccccc4c3)cc2)CC1 (stereo not shown) [Example 107, [4-(4-Quinolin-3-yl-phenoxyl)-piperidin-1-yl]-(tetrahydrofuran-3-yl)-methanone, 2HCl] |
| 7.00 to 9.00 | CCC(=O)N1CCC(Oc2ccc(-c3ccc4cccnc4c3F)cc2)CC1 [Example 22] |
| 7.00 to 9.00 | O=C([C@H]1CCCO1)N1CCC(Oc2ccc(-c3ccc4cccnc4c3O)cc2)CC1 [Example 190, {4-[4-(8-Hydroxyquinolin-7-yl)-phenoxy]-piperidin-1-yl}-(R)-tetrahydro-furan-2-yl-methanone, HCl] |
| 7.00 to 9.00 | CCC(=O)N1CCC(Oc2ccc(-c3cnc4ccccc4c3Cl)cc2)CC1 [Example 47, 1-{4-[4-(4-Chloroquinolin-3-yl)-phenoxy]-piperidin-1-yl}-propan-1-one] |
| 6.00 to 7.00 | CCOc1c(-c2ccc(OC3CCN(C(=O)C4CC4)CC3)cc2)ccc2cccnc12 [Example 168, Cyclopropyl-{4-[4-(8-ethoxyquinolin-7-yl)-phenoxy]-piperidin-1-yl}-methanone, HCl] |
| 6.00 to 7.00 | CCC(=O)N1CCC(Oc2ccc(-c3cc4ccccc4o3)cc2)CC1 [Example 245, 1-[4-(4-Benzofuran-2-yl-phenoxy)-piperidin-1-yl]-propan-1-one] |
| 6.00 to 7.00 | NC(=O)c1c(-c2ccc(OC3CCN(C(=O)[C@H]4CCCO4)CC3)cc2)ccc2cccnc12 [Example 336, 7-[4-[[1-[(2R)-Tetrahydrofuran-2-carbonyl]-4 piperidyl]oxy]phenyl]quinoline-8-carboxamide] |
| 6.00 to 7.00 | COc1ccc2ncc(-c3ccc(OC4CCN(C(=O)C5CC5)CC4)cc3)cc2c1 [Example 54, Cyclopropyl-{4-[4-(6-methoxyquinolin-3-yl)-phenoxy]-piperidin-1-yl}-methanone] |
| 6.00 to 7.00 | O=C(C1CC1)N1CCC(Oc2ccc(-c3ccc4c(Cl)nccc4c3)cc2)CC1 [Example 420, {4-[4-(1-Chloroisoquinolin-6-yl)-phenoxy]-piperidin-1-yl}-cyclopropyl-methanone] |
| 7.00 to 9.00 | Cc1c(-c2ccc(OC3CCN(C(=O)[C@H]4CCCO4)CC3)cc2)cnc2ccccc12 [Example 65, {4-[4-(4-Methylquinolin-3-yl)-phenoxy]-piperidin-1-yl}-(R)-tetrahydro-furan-2-yl-methanone] |
| 5.00 to 6.00 | CCC(=O)N1CCC(Oc2ccc(-c3ccc4cccnc4c3OCCN3CCN(C)CC3)cc2)CC1 [Example 177, 1-[4-[4-[8-[2-(4-Methylpiperazin-1-yl)ethoxy]-7-quinolyl]phenoxy]-1-piperidyl]propan-1-one, HCl] |
| 6.00 to 7.00 | CCC(=O)N1CCC(Oc2ccc(-c3ccc4cccnc4c3O)cc2)CC1 [Example 188, 1-{4-[4-(8-Hydroxyquinolin-7-yl)-phenoxy]-piperidin-1-yl}-propan-1-one, HCl] |
| 5.00 to 6.00 | COc1cc2ncc(-c3ccc(OC4CCN(C(=O)C5CC5)CC4)cc3)cc2cc1C [Example 442, Cyclopropyl-{4-[4-(7-methoxy-6-methylquinolin-3-yl)-phenoxy]-piperidin-1-yl}-methanone] |
| 5.00 to 6.00 | CC(C)C(=O)N1CCC(Oc2ncc(-c3cnc4ccccc4c3)cn2)CC1 [Example 138, 2-Methyl-1-[4-(5-quinolin-3-yl-pyrimidin-2-yloxy)-piperidin-1-yl]-propan-1-one, 2HCl] |
| 5.00 to 6.00 | Cc1cc(OC2CCN(C(=O)C(C)C)CC2)ccc1-c1cnc2ccccc2c1 [Example 206, 2-Methyl-1-[4-(3-methyl-4-quinolin-3-yl-phenoxy)-piperidin-1-yl]-propan-1-one] |
| 7.00 to 9.00 | CCNC(=O)N1CCC(Oc2ccc(-c3ccc4cccnc4c3OC)cc2)CC1 [Example 86, 4-[4-(8-Methoxyquinolin-7-yl)-phenoxy]-piperidine-1-carboxylic acid ethylamide] |
| 5.00 to 6.00 | CCC(=O)N1CCC(Oc2ccc(-c3cnc4ccccc4c3)cn2)CC1 [Example 132, 1-[4-(5-Quinolin-3-yl-pyridin-2-yloxy)-piperidin-1-yl]-propan-1-one, HCl] |
